The results in this text go back to patent US20040048834A1, “Antitumoral compounds” (priority 2000, published 2004).

Where a name gives a salt, the structure may show the parent alone. Read-outs that look alike come from different tables or passages of the source.

Data set [1] deals with A549. The data set can be described thus: Cytotoxicity of spisulosine analogs, A549 (after Berjeron et al). Format: cell-based. The settings on record: methodology after Berjeron et al, NA=not active, read-out: Cytotoxicity IC50 A549.
In data set [2] the test system is HT29. Description: Cytotoxicity of spisulosine analogs, HT29 (after Berjeron et al). The settings on record: methodology after Berjeron et al, NA=not active, read-out: Cytotoxicity IC50 HT29. Format: cell-based.

For orientation: IC50 means the midpoint of a concentration-inhibition curve. On to `CCCCCCCCCCCCCCC[C@@H](N)[C@H](C)N`, for which the IC50 in data set [1] (A549) and in data set [2] (HT29) was 1400 nM in each case.
Consider `CCCCCCCCCCCCCCC[C@@H](OC(=O)C(F)(F)F)[C@H](C)N`, for which the IC50 in data set [1] (A549) and in data set [2] (HT29) was 20.2 nM throughout.
Regarding `CCCCCCCCCCCCCCC[C@H](N)[C@H](C)N`, the IC50 in data set [1] (A549) and in data set [2] (HT29) was 280 nM throughout.
Turning to `CCCCCCCCCCCCCCC[C@@H](O)[C@H](C)NS(C)(=O)=O`, the IC50 in data set [1] (A549) and in data set [2] (HT29) was 27.5 nM throughout.
As to `CCCCCCCCCCCCCCCC[C@@H](O)[C@H](C)NS(C)(=O)=O`, the IC50 in data set [1] (A549) and in data set [2] (HT29) was 265 nM throughout.
As to `CCCCCCCCCCCCC/C=C/[C@@H](O)[C@@H](N)CF`, the IC50 in data set [1] (Homo sapiens, A549, A549) stood at 33.2 nM; in data set [2] (Homo sapiens, HT-29, HT29), 33.2 nM.
In the case of `CCCCCCCCCCCCCCC[C@@H](OC)[C@H](C)N` [(2S,3R)-2-Amino-3-(methoxy)-octadecane], the IC50 worked out at 1670 nM in data set [1] (Homo sapiens, A549, A549) and 1670 nM in data set [2] (Homo sapiens, HT-29, HT29).
For `CCCCCCCCCCCCC[C@@H](O)[C@H](C)N` [drawing 42, (2S,3R)-2-Amin-3-hexadecanol hydrochloride], the IC50 in data set [1] (A549, hydrochloride) amounted to 3.4 nM; in data set [2] (HT29, hydrochloride) it was 3.4 nM.
Consider `CCCCCCCCCCCCCC[C@@H](O)[C@H](C)N` [drawing 45, (2S,3R)-2-Amino-3-heptadecanol hydrochloride], for which the IC50 in data set [1] (A549, hydrochloride) was 32.5 nM; in data set [2] (HT29, hydrochloride) it was 32.5 nM.
Regarding `CCCCCCCCCCCCCCCC[C@@H](O)[C@H](C)N` [drawing 49, (2S,3R)-2-Amino-3-nonadecanol hydrochloride], the IC50 came out at 29.8 nM in data set [1] (Homo sapiens, A549, A549) and 29.8 nM in data set [2] (Homo sapiens, HT-29, HT29).
As for `CCCCCCCCCCCCCCCCC[C@@H](O)[C@H](C)N` [drawing 51, (2S,3R)-2-Amino-3-eicosanol hydrochloride], the IC50 turned out to be 14.3 nM in data set [1] (A549, hydrochloride) and 14.3 nM in data set [2] (HT29, hydrochloride).
On to `CCCCCCCCCCCCCCCCCC[C@@H](O)[C@H](C)N` [drawing 53, (2S,3R)-2-Amino-3-heneicosanol hydrochloride], for which the IC50 came out at 27.5 nM in data set [1] (A549, hydrochloride) and 27.5 nM in data set [2] (HT29, hydrochloride).
Turning to `CCCCCCCCCCCCCC[C@@H](O)[C@@H](N)CC` [drawing 56, (3S,4R)-3-Amino-4-octadecanol], the IC50 in data set [1] (A549) and in data set [2] (HT29) was 3.5 nM in each case.
Turning to `CCCCCCCCCCCCCC[C@@H](O)[C@@H](N)CC` [drawing 57, (3s,4R)-3-Amino-4-octadecanol hydrocloride], the concentration for half-maximal inhibition (IC50) in data set [1] (A549) and in data set [2] (HT29) was 15.5 nM in each case.
Consider `CCCCCCCCCCCCCCC[C@@H](O)[C@@H](N)CC` [drawing 59, (3S,4R)-3-Amino-4-nonadecanol hydrochloride], for which the IC50 in data set [1] (A549, hydrochloride) came out at 2.98 nM; in data set [2] (HT29, hydrochloride) it was 2.98 nM.
On to `CCCCCCCCCCCCCCCC[C@@H](O)[C@@H](N)CC` [drawing 60, (3S,4R)-3-Amino-4-eicosanol], for which the IC50 in data set [1] (A549) and in data set [2] (HT29) was 319 nM throughout.
As to `CCCCCCCCCCCCCCCC[C@@H](O)[C@@H](N)CC` [drawing 61, (3S,4R)-3-Amino-4-eicosanol hydrochloride], the IC50 in data set [1] (A549, hydrochloride) is 28.6 nM; in data set [2] (HT29, hydrochloride), 28.6 nM.
With `CCCCCCCCCCCCCCCCC[C@@H](O)[C@@H](N)CC` [drawing 62, (3S,4R)-3-Amino-4-heneicosanol], the half-inhibitory concentration (IC50) in data set [1] (Homo sapiens, A549, A549) was 30.5 nM; in data set [2] (Homo sapiens, HT-29, HT29), 30.5 nM.
`CCCCCCCCCCCCCCCCC[C@@H](O)[C@@H](N)CC` [drawing 63, (3S,4R)-3-Amino-4-heneicosanol hydrochloride]: the half-inhibitory concentration (IC50) amounted to 27.5 nM in data set [1] (A549, hydrochloride) and 27.5 nM in data set [2] (HT29, hydrochloride).
`CCCCCCCCCCCCCCC[C@@H](O)[C@@H](N)CCC` [drawing 64, (4S,5R)-4-Amino-5-eicosanol]: the IC50 in data set [1] (A549) and in data set [2] (HT29) was 159 nM in each case.
With `CCCCCCCCCCCCCCC[C@@H](O)[C@@H](N)CCC` [drawing 65, (4S,5R)-4-Amino-5-eicosanol hydrochloride], the IC50 in data set [1] (A549, hydrochloride) came to 28.6 nM; in data set [2] (HT29, hydrochloride), 28.6 nM.
